Target: S-adenosylmethionine synthase isoform type-2 (Homo sapiens, UniProt P31153)
Assay: Enzymatic Activity of MAT2A
Description: 1. 1×Assaybuffer (buffer composition: Tris, KCl, MgCl2, BSA, Brij35, and EDTA; the solvent was ultrapure water) was prepared. MAT2A his-tag enzyme solution (containing 1.3 μL of MAT2A enzyme and 998.7 μL of 1×Assaybuffer per 1000 μL) and substrate mixed solution (containing 5 μL of ATP, 1.3 μL of L-methionine, and 993.7 μL of 1×Assaybuffer per 1000 μL) were prepared using 1×AssayBuffer.2. Preparation of compound concentration gradient: The test compound was tested with a starting concentration of 10 μM, and 10 […] concentrations were set according to a 3-fold dilution. Specifically, firstly, the compound was diluted into 10 different concentrations of series solutions in a 384 well plate (with final detection concentrations of 10, 3.33, 1.11, 0.37, 0.123, 0.041, 0.0137, 0.0046, 0.0015, and 0.0005 μM), and then 250 nL of the above series solutions was transferred to the 384 well reaction plate using an ultrasonic pipetting system Echo550 for later use. 250 nL of 100% DMSO was added into a negative control well and a positive control well, respectively. Double well test.3. 15 μL of MAT2A his-tag enzyme solution was added into both the compound well and the positive control well; and 15 μL of 1×Assaybuffer was added into the negative control well.4. The 384 well plate reaction plate was centrifuged at 1000 rpm for 60 seconds, shaken, mixed well, and incubated for 15 minutes. 10 μL of substrate mixed solution was added into each experimental well of the 384 well reaction plate to initiate the reaction.5. The 384 well reaction plate was centrifuged at 1000 rpm for 60 seconds, shaken, mixed well, and incubated for 150 minutes.6. 50 μL of enzyme reaction termination solution Biomol was added into all experimental wells of the 384 well reaction plate to terminate the reaction, centrifuged at 1000 rpm for 60 seconds, and incubated for 15 minutes. OD620 was Data analysis: the inhibition rate (%) of the compound was calculated and fitted to obtain the IC50 of the tested compound.

Chain of S-adenosylmethionine synthase isoform type-2 (P31153 whole entry, canonical isoform): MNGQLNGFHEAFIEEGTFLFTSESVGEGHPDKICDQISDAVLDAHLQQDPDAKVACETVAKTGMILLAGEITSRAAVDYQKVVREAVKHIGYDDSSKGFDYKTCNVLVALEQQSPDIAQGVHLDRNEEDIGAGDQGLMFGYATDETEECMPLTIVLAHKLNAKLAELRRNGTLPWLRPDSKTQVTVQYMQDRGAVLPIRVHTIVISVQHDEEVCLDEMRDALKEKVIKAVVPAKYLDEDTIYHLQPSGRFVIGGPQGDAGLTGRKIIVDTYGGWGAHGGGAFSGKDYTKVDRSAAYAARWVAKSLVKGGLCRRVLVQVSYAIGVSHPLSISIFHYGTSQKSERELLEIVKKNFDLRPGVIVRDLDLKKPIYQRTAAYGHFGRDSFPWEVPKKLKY

## CCOc1c(-c2ccc(OC(F)F)cc2)c(=O)n(-c2ccn3nccc3c2)c2[nH]ncc12 [US20260014125, Compound 23]
  IC50: 0.0098 µM

## CCOc1c(-c2ccc(OC(F)F)cc2)c(=O)n(-c2ccc3nccn3c2)c2[nH]ncc12 [US20260014125, Compound 24]
  IC50: 0.0159 µM

## CCOc1c(-c2ccc(OC(F)F)cc2)c(=O)n(-c2ccc3ncnn3c2)c2[nH]ncc12 [US20260014125, Compound 25]
  IC50: 0.014 µM

## CCOc1c(-c2ccc(OC(F)F)cc2)c(=O)n(-c2ccc3nn(CCOC)cc3c2)c2[nH]ncc12 [US20260014125, Compound 21]
  IC50: 0.0083 µM

— BindingDB's records for patent US20260014125 (Haihe Biopharma, 2026)
